Measurements as given in PubChem BioAssay AID1918936 (Molecular Pharmacology Branch, DTP, NCI, 2023).
Several values for one entry are separate records, joined by “and”; a condition that tells them apart may be missing. Equal entries are not always repeated.

Tested on: 349418-098-R-PDC complex spheroid viability
Assay: Anticancer human tumor 349418-098-R-PDC patient-derived lung adenocarcinoma cell line growth inhibition
Conditions: for viability, T/C: stronger effect = lower value; active = viability on the fitted dose curve at most 10% of control; inactive = the rest
Summary of the method: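 Drug combinations with the LSD1 inhibitor iadademstat tested on tumor cells co-cultured as spheroids with endothelial cells and mesenchymal stem cells. Concentrations descended in half-log increments from clinical Cmax or 10 microM.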

[1] = curve of first compound, second compound 0.1 µM
[2] = curve of first compound, second compound 0.316 µM
[3] = curve of first compound, second compound 1 µM
[4] = curve of first compound, second compound 3.16 µM
[5] = curve of first compound, second compound 10 µM
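Also: spheroids exposed to agents for seven days before readout.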
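For viability, T/C in this document: 100% = DMSO vehicle control wells.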

CC[C@@]1(O)C(=O)OCc2c1cc1n(c2=O)Cc2cc3c(CN(C)C)c(O)ccc3nc2-1 + NC1CC1c1ccc(-c2cccc(O)c2)cc1
4.78 nM: IC50 [3]
active: viability, T/C (second compound 0.1 µM, first compound 0.0316 µM) 5.55% | viability, T/C (second compound 0.1 µM, first compound 0.1 µM) 3.01% | viability, T/C (second compound 0.316 µM, first compound 0.0316 µM) 4.91% | viability, T/C (second compound 0.316 µM, first compound 0.1 µM) 2.78% | viability, T/C (second compound 1 µM, first compound 0.01 µM) 10.1% | viability, T/C (second compound 1 µM, first compound 0.0316 µM) 5.15% | viability, T/C (second compound 1 µM, first compound 0.1 µM) 2.6% | viability, T/C (second compound 3.16 µM, first compound 0.0316 µM) 5.39% | viability, T/C (second compound 3.16 µM, first compound 0.1 µM) 2.8% | viability, T/C (second compound 10 µM, first compound 0.01 µM) 8.84% | viability, T/C (second compound 10 µM, first compound 0.0316 µM) 5.04% | viability, T/C (second compound 10 µM, first compound 0.1 µM) 2.95%
inactive: viability, T/C (second compound 0.1 µM, first compound 0.000316 µM) 115% | viability, T/C (second compound 0.1 µM, first compound 0.001 µM) 108% | viability, T/C (second compound 0.1 µM, first compound 0.00316 µM) 74.8% | viability, T/C (second compound 0.1 µM, first compound 0.01 µM) 11.4% | viability, T/C (second compound 0.316 µM, first compound 0.000316 µM) 120% | viability, T/C (second compound 0.316 µM, first compound 0.001 µM) 116% | viability, T/C (second compound 0.316 µM, first compound 0.00316 µM) 74% | viability, T/C (second compound 0.316 µM, first compound 0.01 µM) 9.75% | viability, T/C (second compound 1 µM, first compound 0.000316 µM) 118% | viability, T/C (second compound 1 µM, first compound 0.001 µM) 116% | viability, T/C (second compound 1 µM, first compound 0.00316 µM) 72.4% | viability, T/C (second compound 3.16 µM, first compound 0.000316 µM) 122% | viability, T/C (second compound 3.16 µM, first compound 0.001 µM) 112% | viability, T/C (second compound 3.16 µM, first compound 0.00316 µM) 70.8% | viability, T/C (second compound 3.16 µM, first compound 0.01 µM) 10.1% | viability, T/C (second compound 10 µM, first compound 0.000316 µM) 91.9% | viability, T/C (second compound 10 µM, first compound 0.001 µM) 90.1% | viability, T/C (second compound 10 µM, first compound 0.00316 µM) 57.8%
3.8 nM: IC50 [5]
4.69 nM: IC50 [4]
4.97 nM: IC50 [1]
4.86 nM: IC50 [2]

NS(=O)(=O)OCC1CC(n2ccc3c(NC4CCc5ccccc54)ncnc32)CC1O (stereo not drawn) + NC1CC1c1ccc(-c2cccc(O)c2)cc1
active: viability, T/C (second compound 0.1 µM, first compound 0.3 µM) 11.9% | viability, T/C (second compound 0.1 µM, first compound 0.949 µM) 5.29% | viability, T/C (second compound 0.1 µM, first compound 3 µM) 4.99% | viability, T/C (second compound 0.316 µM, first compound 0.3 µM) 12.4% | viability, T/C (second compound 0.316 µM, first compound 0.949 µM) 5.84% | viability, T/C (second compound 0.316 µM, first compound 3 µM) 4.12% | viability, T/C (second compound 1 µM, first compound 0.949 µM) 5.2% | viability, T/C (second compound 1 µM, first compound 3 µM) 4.27% | viability, T/C (second compound 3.16 µM, first compound 0.949 µM) 5.08% | viability, T/C (second compound 3.16 µM, first compound 3 µM) 4.44% | viability, T/C (second compound 10 µM, first compound 0.949 µM) 4.94% | viability, T/C (second compound 10 µM, first compound 3 µM) 2.73%
64.1 nM: IC50 [1]
59.1 nM: IC50 [2]
inactive: viability, T/C (second compound 0.1 µM, first compound 0.00949 µM) 116% | viability, T/C (second compound 0.1 µM, first compound 0.03 µM) 86.6% | viability, T/C (second compound 0.1 µM, first compound 0.0949 µM) 30.5% | viability, T/C (second compound 0.316 µM, first compound 0.00949 µM) 120% | viability, T/C (second compound 0.316 µM, first compound 0.03 µM) 82.3% | viability, T/C (second compound 0.316 µM, first compound 0.0949 µM) 26.6% | viability, T/C (second compound 1 µM, first compound 0.00949 µM) 124% | viability, T/C (second compound 1 µM, first compound 0.03 µM) 77% | viability, T/C (second compound 1 µM, first compound 0.0949 µM) 31.9% | viability, T/C (second compound 1 µM, first compound 0.3 µM) 11.3% | viability, T/C (second compound 3.16 µM, first compound 0.00949 µM) 124% | viability, T/C (second compound 3.16 µM, first compound 0.03 µM) 81.6% | viability, T/C (second compound 3.16 µM, first compound 0.0949 µM) 29.2% | viability, T/C (second compound 3.16 µM, first compound 0.3 µM) 12.2% | viability, T/C (second compound 10 µM, first compound 0.00949 µM) 106% | viability, T/C (second compound 10 µM, first compound 0.03 µM) 55.5% | viability, T/C (second compound 10 µM, first compound 0.0949 µM) 28.1% | viability, T/C (second compound 10 µM, first compound 0.3 µM) 9.97%
59.6 nM: IC50 [3]
38 nM: IC50 [5]
60.7 nM: IC50 [4]

O=C(C=Cc1cccc(S(=O)(=O)Nc2ccccc2)c1)NO
3.74% and 0.75%: viability, T/C (compound 0.949 µM)
118 nM and 52.7 nM: IC50 (curve of compound)
inactive: viability, T/C (compound 0.00949 µM) 81.2% and 75% | viability, T/C (compound 0.03 µM) 71.6% and 70.5% | viability, T/C (compound 0.0949 µM) 58.6% and 19.1% | viability, T/C (compound 0.3 µM) 17.8% and 2.96%

COc1cc(Nc2ncc3c(n2)-c2ccc(Cl)cc2C(c2c(F)cccc2OC)=NC3)ccc1C(=O)O
17.5 nM and 6.2 nM: IC50 (curve of compound)
inactive: viability, T/C (compound 0.00316 µM) 81.5% and 59.7% | viability, T/C (compound 0.01 µM) 63.8% and 43.1% | viability, T/C (compound 0.0316 µM) 35.4% and 41.2% | viability, T/C (compound 0.1 µM) 40.7% and 45.3% | viability, T/C (compound 0.316 µM) 31.1% and 40.4% | viability, T/C (compound 1 µM) 31.7% and 39.1%
